Results on 3 compounds are retold here after PMC6245447, “Effect of Dehydroaltenusin-C12 Derivative, a Selective DNA Polymerase α Inhibitor, on DNA Replication in Cultured Cells” (Molecules, 2008).

This assay has as its target T1, DNA polymerase α (calf thymus pol α) (Bos taurus, UniProt A0AAA9TD94).
T1 construct: gene POLA1; pol α purified from calf thymus
T1 sequence (A0AAA9TD94 1-1441): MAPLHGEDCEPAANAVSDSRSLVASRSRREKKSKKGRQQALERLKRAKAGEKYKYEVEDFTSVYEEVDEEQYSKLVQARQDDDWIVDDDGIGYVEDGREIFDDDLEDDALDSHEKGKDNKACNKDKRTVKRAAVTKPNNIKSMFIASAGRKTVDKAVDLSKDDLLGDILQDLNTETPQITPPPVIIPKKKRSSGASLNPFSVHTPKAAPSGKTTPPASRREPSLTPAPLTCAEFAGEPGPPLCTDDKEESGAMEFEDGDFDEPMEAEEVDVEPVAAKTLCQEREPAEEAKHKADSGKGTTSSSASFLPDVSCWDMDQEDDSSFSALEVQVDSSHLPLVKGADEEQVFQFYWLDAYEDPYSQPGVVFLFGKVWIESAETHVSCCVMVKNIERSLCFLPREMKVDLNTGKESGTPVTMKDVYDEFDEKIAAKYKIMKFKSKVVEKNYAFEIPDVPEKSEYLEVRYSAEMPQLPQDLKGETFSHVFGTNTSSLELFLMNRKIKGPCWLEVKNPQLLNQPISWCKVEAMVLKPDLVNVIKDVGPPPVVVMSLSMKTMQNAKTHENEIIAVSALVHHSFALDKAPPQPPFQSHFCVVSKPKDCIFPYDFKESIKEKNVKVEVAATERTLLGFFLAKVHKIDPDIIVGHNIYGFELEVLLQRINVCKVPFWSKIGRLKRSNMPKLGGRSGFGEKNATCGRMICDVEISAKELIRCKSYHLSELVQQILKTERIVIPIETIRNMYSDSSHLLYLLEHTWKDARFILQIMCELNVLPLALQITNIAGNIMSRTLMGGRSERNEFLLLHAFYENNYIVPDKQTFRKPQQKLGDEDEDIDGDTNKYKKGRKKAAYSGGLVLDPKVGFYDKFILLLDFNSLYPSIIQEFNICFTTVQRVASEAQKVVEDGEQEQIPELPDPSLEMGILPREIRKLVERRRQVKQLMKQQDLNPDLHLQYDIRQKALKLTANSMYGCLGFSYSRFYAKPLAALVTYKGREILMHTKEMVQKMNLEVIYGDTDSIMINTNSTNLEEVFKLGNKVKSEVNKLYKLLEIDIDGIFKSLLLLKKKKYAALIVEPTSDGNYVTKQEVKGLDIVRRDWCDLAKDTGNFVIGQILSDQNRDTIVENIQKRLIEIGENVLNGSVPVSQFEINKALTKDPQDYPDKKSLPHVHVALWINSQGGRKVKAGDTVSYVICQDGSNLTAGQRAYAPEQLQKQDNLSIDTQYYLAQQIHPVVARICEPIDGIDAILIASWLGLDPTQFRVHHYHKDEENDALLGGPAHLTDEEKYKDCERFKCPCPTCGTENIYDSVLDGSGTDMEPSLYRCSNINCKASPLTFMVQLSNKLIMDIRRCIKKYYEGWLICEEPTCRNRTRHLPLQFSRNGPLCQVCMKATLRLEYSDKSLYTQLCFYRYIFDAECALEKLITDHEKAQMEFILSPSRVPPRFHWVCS
The experiment in a line: [3H]-dTTP incorporation polymerase assay on poly(dA)/oligo(dT)[…]-18 with purified pol α. The format is biochemical.

Read-outs that look alike come from different tables or passages of the source.

Regarding `COc1cc(O)c2c(c1)C1=CC(=O)C(O)=CC1(C)OC2=O` (stereo not drawn) [compound 1, Dehydroaltenusin], the IC50 (in general, the concentration that gives 50% inhibition) (read-out: IC50) was found to be 9.9 µM. Same read-out and setting: as for `CCCCCCCCCCCCOc1cc(O)c2c(c1)C1=CC(=O)C(O)=CC1(C)OC2=O` (stereo not drawn) [compound 2, C12], the figure is 1.4 µM.

The compound `C[C@@]1(CO)[C@H](O)CC[C@@]2(C)[C@H]1CC[C@H]1C[C@@H]3C[C@@]12CC[C@]3(O)CO` [compound 3, aphidicolin] showed an IC50 of 14.5 µM.
